Among the data in the Bradley open melting point set (2014) are melting point values, retold here.

“And” between values parts separate entries of the source, which are not always exact repeats. Identical values can stand only once.

On to `c1ccncc1` [Pyridine], for which the melting point (commonly the temperature, or range, at which the solid turns liquid) was -42 °C. For `Cc1occc(=O)c1O` [3-hydroxy-2-methyl-4-pyrone], the melting point amounted to 163 °C. The value for `CCCCCCC(C)=O` [2-octanone] was -16 °C; that for `CC1(O)CCCC1` [1-methylcyclopentanol] was 37 °C.

In the case of `NCCCCCCO` [6-Aminohexan-1-ol], the melting point is 56 °C. The value for `C/C(=C\c1ccccc1)c1ccccc1` [(e)-alpha-methylstilbene] was 81 °C; that for `CC` [ethane] was -183 °C; that for `CC(=O)c1cccc(C(C)=O)c1` [1,3-diacetylbenzene] was 36 °C. `c1ccc2c(c1)ccc1c3ccccc3ccc21` [chrysene]: the melting point is 255 °C.

In the case of `CCCCN1CCCCC1C(=O)Nc1c(C)cccc1C` (configuration not stated) [bupivacaine], the melting point was determined as 107 °C. For `CCCCC/C=C\C/C=C\CCCCCCCC(=O)O` [linoleic acid] the value was -12 °C. The value for `CCCCCCCCC(C)=O` [2-decanone] was 3 °C. For `C=Cc1cccc(C)c1` [3-methylstyrene] the value was -82 °C; for `Fc1ccc(-c2cc3ccccc3[nH]2)cc1` [2-(4-fluorophenyl)indole], 189 °C; for `COc1cc(C)c(C=CC(C)=CC=CC(C)=CC(=O)O)c(C)c1C` [acitretin], 228 °C. With `COC(=O)c1sc(Br)c(Br)c1O` [methyl 4,5-dibromo-3-hydroxythiophene-2-carboxylate], the melting point turned out to be 127 °C. For `O=C(O)c1cc(Cl)c(C(=O)O)cc1Cl` [2,5-dichloroterephthalic acid] the value was 295 °C. `CC(=O)Oc1ccccc1C(=O)O` [o-acetylsalicylic acid] returned a melting point of 138 °C. The value for `Cc1ccnc(NS(=O)(=O)c2ccc(N)cc2)n1` [sulfamerazine (polymorph 1)] was 235 °C.

`C=CCc1ccccc1` [allylbenzene]: the melting point was -50 °C. For `CCC(C)Cl` (configuration not stated) [2-chlorobutane] the value was -131 °C; for `C=CCCCCCCCC` [Dec-1-ene], -66 °C. Compound `O=C(Nc1ccccc1)Nc1ccccc1` [1,3-DIPHENYLUREA] returned a melting point of 232 °C. On to `C#CC(C)(C)O` [2-methyl-3-butyn-2-ol], for which the melting point was determined as 3 °C. The value for `C#C[C@]1(O)CC[C@H]2[C@@H]3CCc4cc(O)ccc4[C@H]3CC[C@@]21C` [Ethinyl Estradiol] was 183 °C. `COC1=C(OC)/C(=C/C2CCC=CC23OC(=O)C(OC)=C3OC)OC1=O` (configuration not stated) showed a melting point of 119 °C.

For the compound `CC(C)(C)OC(=O)N[C@H](COCc1ccccc1)C(=O)O` [N-boc-o-benzyl-D-serine], the melting point came to 62 °C. For `C[C@]12CCC(=O)C[C@@H]1CC[C@@H]1[C@@H]2CC[C@]2(C)[C@@H](O)CC[C@@H]12` [stanolone] the value was 181 °C; for `N=C(N)Nc1nc(CSCCC(=N)NS(N)(=O)=O)cs1` [famotidine], 164 °C. The value for `Cc1cc(O)cc(C)c1Cl` [4-chloro-3,5-dimethylphenol] was 115 °C; that for `CCC(C)C1(CC)C(=O)NC(=O)NC1=O` (configuration not stated) [secbutabarbital] was 166 °C; that for `Nc1ccc2cc3ccccc3cc2c1` [2-aminoanthracene] was 237 °C.

With `CC(C)(C)OC(=O)N1CCc2ccccc21` [1-boc-indoline], the melting point worked out at 47 °C. The value for `Cc1ccc(C(C)C)cc1` [1-Isopropyl-4-methylbenzene] was -68 °C; that for `COc1ccc(C=O)cc1B(O)O` [5-formyl-2-methoxybenzeneboronic acid] was 160 °C; that for `Nc1ccc(I)cc1Cl` [2-chloro-4-iodoaniline] was 70 °C. The value for `N/C(N)=N/c1nc(CSCCC(N)=N/S(N)(=O)=O)cs1` [Famotidine] was 164 °C; that for `C=CCSc1ncccc1C(=O)O` [2-(allylthio)nicotinic acid] was 147 °C. For `CC(C)C[C@H](NC(=O)OCC1c2ccccc2-c2ccccc21)C(=O)O` [N-fmoc-L-leucine] the value was 154 °C; for `CCCI` [1-iodopropane], -101 °C; for `O=C(Cl)c1ccccc1` [benzoyl chloride], -1 °C. Regarding `O=C(O)c1ccc([N+](=O)[O-])cc1C(=O)O` [4-nitrophthalic acid], the melting point worked out at 163 °C. `CP(C)(C)=O` [trimethylphosphine oxide]: the melting point amounted to 141 °C. For the compound `Cc1cc(=O)n(-c2ccccc2)n1C` [1,5-Dimethyl-2-phenyl-1,2-dihydro-3H-pyrazol-3-one], the melting point worked out at 110 °C. As for `C=Cc1ccc(C)cc1` [4-methylstyrene], the melting point was -34 °C. The compound `Clc1cc(Cl)c(-c2ccc(Cl)c(Cl)c2Cl)cc1Cl` [PCB-138] showed a melting point of 79 °C. With `Brc1ccccc1I` [1-bromo-2-iodobenzene], the melting point amounted to 10 °C. The value for `Cc1cc(C)c(Br)c(C)c1` [2-bromomesitylene] was 2 °C; that for `OCCCl` [2-chloroethanol] was -67 °C. `C/C(C)=C(/C)C` [2,3-dimethyl-2-butene] registered a melting point of -74 °C.

On to `CCN(CC)CCNC(=O)c1cc(Cl)c(N)cc1OC` [metoclopramide], for which the melting point worked out at 147 °C. The compound `CCCCCCCCOc1ccc(NC(=O)c2ccc(OC)cc2)cc1` [4-methoxy-N-[4-(octyloxy)phenyl]benzamide] showed a melting point of 153 °C. For `O=C(O)C1CC1` [cyclopropanecarboxylic acid] the value was 18 °C and 18.5 °C and 16.8 °C. The value for `O=C(O)[C@@H]1CCCN1` [L-Proline] was 228 °C; that for `COc1cc(C=O)cc(Cl)c1O` [5-chlorovanillin] was 164 °C; that for `CCCS` [1-propanethiol] was -113 °C. The value for `COc1c(B(O)O)cccc1C(=O)O` [3-(Dihydroxyboryl)-2-methoxybenzoic acid] was 157 °C; that for `Cc1c(C)c2c(c(C)c1O)CC[C@@](C)(CCC[C@H](C)CCC[C@H](C)CCCC(C)C)O2` was 2 °C; that for `Cc1ccc(C(=O)c2nn(-c3ccccc3)/c(=N\N=C\c3ccco3)s2)cc1` was 114 °C. The compound `Cc1cccc(C)c1O` [2,6-dimethylphenol] had a melting point of 49 °C.

In turn, `CCCC(C)S` (configuration not stated) [2-pentanethiol] yielded a melting point of -112 °C. The value for `N#C/C=C/c1cc(C(F)(F)F)cc(C(F)(F)F)c1` [3,5-bis(trifluoromethyl)cinnamonitrile] was 82 °C. For `Clc1ccccc1Cl` [o-dichlorobenzene] the value was -17 °C; for `CC(=O)c1ccc(N2CCNCC2)cc1` [4'-(1-piperazinyl)acetophenone], 96 °C; for `CC(C)(C)S` [2-methyl-2-propanethiol], 1 °C.

Compound `NCC(CC(=O)O)c1ccc(Cl)cc1` (configuration not stated) [baclofen] returned a melting point of 208 °C. The value for `CCN1CCOCC1` [4-Ethylmorpholine] was -63 °C; that for `COc1ccc2c(C)cc(=O)[nH]c2c1` [7-methoxy-4-methyl-2(1h)-quinolinone] was 206 °C.

As to `CCCCCCCCCCCCc1ccccc1` [Dodecylbenzene], the melting point was -7 °C. The value for `Cc1ccc(S(=O)(=O)CCCl)cc1` [2-chloroethyl p-tolyl sulfone] was 79 °C; that for `O=C(O)c1ccccc1Nc1cccc(C(F)(F)F)c1` [Flufenamic Acid] was 134 °C; that for `CON=C(/c1ccco1)C(=O)N[C@@H]3C(=O)N2C(=C(COC(N)=O)CS[C@@H]23)C(=O)O` [Cefuroxime] was 222 °C. Compound `CCOCCOCCOCC` [diethylene glycol diethyl ether] yielded a melting point of -44 °C. For `Cc1cc(C)cc(O)c1` [3,5-dimethylphenol] the value was 63 °C.

`COc1cccc(C(CC(=O)O)NC(=O)OC(C)(C)C)c1` (configuration not stated) [3-(boc-amino)-3-(3-methoxyphenyl)propionic acid] showed a melting point of 82 °C. The value for `CCCCCCCCCCC#CC#CCCCCCCCCC(=O)O` [10,12-tricosadiynoic acid] was 57 °C. The compound `COC(=O)[C@H](Cc1ccccc1)NC(=O)[C@@H](N)CC(=O)O` [Methyl L-alpha-aspartyl-L-phenylalaninate] displayed a melting point of 249 °C. The value for `CCC1(c2ccccc2)NC(=O)N(C)C1=O` (configuration not stated) [Mephenytoin] was 135 °C; that for `c1ccc2c(-c3cccc4ccccc34)cccc2c1` [binaphthyl] was 154 °C. For the compound `Nc1n[nH]c(-c2ccccc2)c1Br` [3-amino-4-bromo-5-phenyl-1h-pyrazole], the melting point was found to be 114 °C.

The compound `CCOc1ccc(N)cc1` [p-phenetidine] yielded a melting point of 3 °C. For `O=C(NNc1ccccc1)NNc1ccccc1` [N'',N'''-Diphenylcarbonohydrazide] the value was 173 °C; for `CC(=O)Nc1ccccc1O` [2-acetamidophenol], 207 °C; for `C=CCC1(C2C=CCCC2)C(=O)NC(=S)NC1=O` (configuration not stated) [thialbarbital], 148 °C. The value for `CCCSc1ncccc1C(N)=O` [2-(n-propylthio)nicotinamide] was 147 °C; that for `CCOC(=O)/C(C#N)=C\c1ccc(-c2ccc(C)cc2)o1` [Ethyl (2Z)-2-cyano-3-[5-(4-methylphenyl)-2-furyl]acrylate] was 124 °C; that for `Nc1ccccc1N` [Benzene-1,2-diamine] was 102 °C. For the compound `N#CCc1ccccc1` [phenylacetonitrile], the melting point is -24 °C. Consider `Cc1ccc(Cc2ccc(C)cc2)cc1` [4,4'-dimethyldiphenylmethane], for which the melting point amounted to 29 °C. In turn, `CSCC[C@H](NC(=O)OC(C)(C)C)C(=O)O` [N-boc-L-methionine] had a melting point of 50 °C. For `COC(=O)c1ccc(N)cc1` [methyl 4-aminobenzoate] the value was 112 °C; for `CCn1cc(C(=O)O)c(=O)c2ccc(C)nc21` [nalidixic acid], 229 °C.
